# Key:
# [1] = system: GLT-1; assay: GLT-1 content in brain of TBI rats; format: in vivo, SD rats; details: 30 mg/kg ip, 7 d continuous administration, FIG. 4
# Protocol: (§1) The experimental grouping and drug administration plan were as follows. • Sham operation group (Group P): saline was given with the same volume as in the CTMB group; • Model group (T group): a blank emulsion was given with the same volume as in the CTMB group; • Medium dose group (Group M): a dose of 30 mg/kg of CTMB emulsion injection was given.
# The experimental grouping and drug administration plan were the same as the test 3. After 7 d of continuous administration to each group, the rats were deeply anesthetized, the heads were severed and the brains were removed, about 60-120 mg of hemispheric cortex on the blood side was taken out, 10 times volume of ice-cold centrifugation buffer used for biochemical assay was added, homogenized for 10 min under an ice bath, and then centrifuged for 30 min at 4° C. and 14000 rpm/min. The supernatants were taken to test the GLT-1 and GABA content according to the instructions of GLT-1 and GABA content assay kit, respectively. Glutamate transporter 1 (GLT-1) is an important glutamate transporter in the brain that transports extracellular glutamate to the intracellular compartment. γ-aminobutyric acid (GABA) is an important inhibitory neurotransmitter, and a dramatic increase in the concentration of extracellular glutamate in pathological conditions leads to neuronal hyperexcitability toxicity.
# [2] = system: Tyrosine hydroxylase (TH) protein expression; assay: TH protein expression by immunohistochemistry in substantia nigra of PD mice; format: in vivo, C57 mice; details: Group D, CTMB 20 mg/kg ip, after 4 weeks of administration
# Protocol: (§2) The mice were randomly divided into a sham operation group (group S, given a blank emulsion with a volume equal to that of the administered group), a model group (group M, given a blank emulsion with a volume equal to that of the administered group), a CTMB group (20 mg/kg, group D), and a levodopa group (levodopa: benserazide hydrochloride=4:1, 12 mg/kg, group L), each group included 10-12 mice, and all of them were administered intraperitoneally.
# After completing the evaluation of motor function after 4 weeks of drug administration, the mice were deeply anesthetized, perfused with 20 mL of saline and 20 mL of 4% paraformaldehyde via the heart, and the brains were rapidly severed and extracted from the head, which were then preserved and fixed in 4% paraformaldehyde for 72 h after removal, and then embedded with paraffin to prepare the slices with a thickness of 4 μm for subsequent pathological and histological studies.
# Tyrosine hydroxylase (TH) protein expression was detected by immunohistochemistry. […]
# [3] = system: reduced glutathione (GSH); assay: GSH content in striatum of PD mice; format: in vivo, C57 mice; details: Group D, CTMB 20 mg/kg ip, after 4 weeks, injured side
# Protocol: as §2
# (§3) Malondialdehyde (MDA) is a commonly used indicator of membrane lipid peroxidation, reduced glutathione (GSH) is one of the most commonly used non-enzymatic indicators of antioxidant substances, and superoxide dismutase (SOD) is a common indicator of antioxidant enzymes. After completing the evaluation of motor function after 4 weeks of drug administration, the mice were deeply anesthetized and perfused with 20 mL of saline via the heart. The brain was rapidly severed to isolate the striatal region on the injured side (right side), weighed, and placed into a 1.5 mL EP tube, and homogenized at low temperature by adding phosphate-buffered saline (PBS) at the ratio of a weight of animal tissues (g) to a volume of homogenization medium (mL) of 1:9. […]
# [4] = system: superoxide dismutase (SOD); assay: SOD activity in striatum of PD mice; format: in vivo, C57 mice; details: Group D, CTMB 20 mg/kg ip, after 4 weeks, injured side
# Protocol: as §2, §3
# [5] = system: IL-6; assay: IL-6 in cerebral cortex of TBI rats; format: in vivo, SD rats; details: 30 mg/kg ip 2 h after TBI; 24 h after administration; FIG. 3
# Protocol: as §1
# The experimental grouping and drug administration plan were the same as the test 3. After 2 h of the TBI modeling, different groups of rats were administered intraperitoneally. After 24 h of the administration, the rats were deeply anesthetized, the head was severed and the brain was removed, about 60-120 mg of hemisphere cortex was taken out from the hemisphere on the blood side, 10 times the volume of ice-cold centrifugal buffer used for biochemical assays was added, homogenization was carried out in an ice bath for 10 min, and centrifugation was carried out at 4° C. and 14000 rpm/min for 30 min. The supernatant was extracted, and inflammatory factors IL-1, IL-6, and TNF-α were tested according to the instructions of IL-1, IL-6, and TNF-α assay kits, respectively.
# [6] = system: Malondialdehyde (MDA); assay: MDA content in striatum of PD mice; format: in vivo, C57 mice; details: Group D, CTMB 20 mg/kg ip, after 4 weeks, injured side
# Protocol: as §2, §3
compound,measurement,setting,value
"COc1cc(OC)c(OC)cc1C=C1CCC1 [CTMB, 1-(cyclobutylidenemethyl)-2,4,5-trimethoxybenzene]",GLT-1 content in brain,[1],reduces the GLT-1 content
same,ratio of GLT-1 and GABA,[1],significantly reduces the ratio of GLT-1 and GABA
same,"TH-positive neurons (a percentage of TH-positive neurons to uninjured side, %)",[2],"39.9 ± 12.1^###,***^, && %"
same,GSH,[3],46.38 ± 6.94 μmol/g protein
same,SOD,[4],80.24 ± 10.46 U/mg protein
same,content of IL-6 in cerebral cortex tissue,[5],significantly reduced
same,MDA,[6],2.04 ± 0.57 μmol/g protein

# — patent US20250270159A1, “1-(CYCLOBUTANEMETHYLIDENE)-2, 4, 5-TRIMETHOXYBENZENE COMPOUND AND PREPARATION METHOD AND USE THEREOF” (CHENGDU XINRUI TAIKANG TECHNOLOGY CO., LTD., priority 2023, published 2025)
